Our source for the UPLC-QTOF-MS/MS product detection values is PMC5995273, “Identification and Characterization of Genes Involved in Benzylisoquinoline Alkaloid Biosynthesis in Coptis Species” (Frontiers in Plant Science, 2018).

The target in the assay is T1, Ct7OMT (Coptis teeta, UniProt A0A2Z5FRT2).
T1 construct: gene 7OMT
The assay is described as follows: UPLC-QTOF-MS/MS product detection. The class given is biochemical. The note with it: SAM 0.1 mM, substrate 100 uM, pH 8.0, 30 C, 1 h.

T1 sequence (A0A2Z5FRT2 entry or part of it): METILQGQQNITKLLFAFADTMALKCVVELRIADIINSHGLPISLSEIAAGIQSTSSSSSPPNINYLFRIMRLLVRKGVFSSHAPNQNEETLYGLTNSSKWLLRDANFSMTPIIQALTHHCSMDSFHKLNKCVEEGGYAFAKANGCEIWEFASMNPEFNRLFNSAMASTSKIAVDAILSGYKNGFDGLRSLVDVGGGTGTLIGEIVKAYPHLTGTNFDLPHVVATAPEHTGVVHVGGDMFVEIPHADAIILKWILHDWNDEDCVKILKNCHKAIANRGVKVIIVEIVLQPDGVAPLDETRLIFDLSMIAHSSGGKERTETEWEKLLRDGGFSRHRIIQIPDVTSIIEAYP

As for `Oc1ccc(C[C@@H]2NCCc3cc(O)c(O)cc32)cc1` [compound 1, (S)-norcoclaurine], the UPLC-QTOF-MS/MS product detection entry is “Ct7OMT also O-methylates (S)-norcoclaurine at C6, yielding (S)-coclaurine”.
